Consider one substance from US9919027B2, “Lipid nanoparticle of polymyxin” (priority 2013, dated 2018).

Assay [1] has as its system 31 P. aeruginosa strains obtained from 31 patients with cystic fibrosis. The assay can be described thus: In vitro minimum inhibitory concentration (MIC) in MHBCA broth. In kind it is cell-based. To be noted: 24 hours at 37° C. The protocol:
The antibacterial action of an antibiotic can be measured by means of the minimum inhibitory concentration, which consists of the concentration of the antibiotic required to prevent bacterial growth after the incubation of 10^4-5 bacteria in rapid growth phase, in an aerobic, protein-free medium with pH 7.2 for an incubation period of one night. This term is used to determine the sensitivity of the bacteria to a specific antibiotic agent.
100 μl of a concentration of 10^4 Colony Forming Units (CFU)/ml of 31 P. aeruginosa strains obtained from 31 patients with cystic fibrosis, 13 strains of which were mucus producers, were incubated for 24 hours at 37° C. in a Mueller Hinton broth, cation-adjusted (MHBCA) medium, corresponding to between 20 mg and 25 mg per liter of calcium and between 10 mg and 12.5 mg per liter of magnesium, assuring the reproducibility of the results for P. aeruginosa, in the presence of colistimethate sodium, and nanoparticles obtained according to Examples 1b and 2b, at different concentrations (less than 0.25, 0.25, 0.5, 1, 2, 4, 8 and 32 μg/ml).

Assay [2] deals with mucosa producing P. aeruginosa strain. Description: In vivo efficacy in CD1 mice with pulmonary infection, lung bacteria count. To be noted: infected CD1 mice; intratracheal, once a day for three days; 3000 IU (0.24 mg colistimethate sodium equivalent). The procedure: To carry out the in vivo toxicity and efficacy assays of the nanoparticles of the present invention, it was necessary to establish a rodent infection model. An intratracheal administration of different concentrations of mucosa producing P. aeruginosa included in microspheres (Concentration 1: 5×10^4 CFU, Concentration 2: 2.4×10^7 CFU, and Concentration 3: 3.89×10^10), obtained from a patient with cystic fibrosis, suspended in PBS, in CD1 mice was carried out, administering a different concentration to each rodent, to establish the optimum concentration for generating a suitable pulmonary infection, capable of making the rodents sick without causing their immediate death.
Five mice were used as the control group and 64 mice infected with the inoculation of the bacteria of a mucosa producing P. aeruginosa strain, at a concentration of 2.4×10^7 CFU, as explained in Example 8, were used. […] The amounts were calculated by adjusting the dose recommended in humans with respect to the weight of the mice (3000 IU, equivalent to 0.24 mg of free colistimethate sodium, equivalent to 2.88 mg of the nanoparticles according to Example 1b and 2.52 mg of nanoparticles according to Example 2b). […]

The subject of assay [3] is H441 cell line. The assay can be described thus: Cell viability IC50 (CCK-8) as toxicity marker, H441. In kind it is cell-based, human. To be noted: 24 h incubation, triplicate. The procedure:
(§1) The median inhibition concentration value (IC50) refers to the concentration of an assayed sample required to inhibit the growth of the 50% of the cell population. In this case IC50 value was estimated as a toxicity marker, as the cell viability assay is run under human cell (A549 and H441 cell lines, which are immortalised lines derived from human adenocarcinomic epithelial cell). Cells (at a density of 12,000 cells per well in a 96-well plate) were grown in Dulbecco's Modified Eagle Medium (DMEM) supplemented with 10% foetal bovine serum (FBS), 1% L-glutamine, 1% penicillin/streptomycin solution and 1% of Minimum Essential Medium non-essential amino acids 100× (MEM-NEAA) at 37° C. and 5% CO2 for 24 hours. Decreasing concentrations of nanoparticles 1b and 2b and free colistimethate sodium, starting from 10 mg/ml to 0.07812 mg/ml were added to the cells, diluted in DMEM supplemented with 0.5% serum and incubated at 37°±2° C. and 5% CO2 for 24 h. Cell viability was assessed by means of the Cell Counting Kit 8 after a washing step. With this aim, 10% of CCK-8 reagent was added to each well and incubated in a wet chamber for 4 hours at 37°±2° C. and 5% CO2. Subsequently, the absorbance was read at 450 nm and at 650 nm as the reference wavelength. The absorbance was directly proportional to the number of living cells in culture. […]

Assay [4] deals with A549 cell line. The assay can be described thus: Cell viability IC50 (CCK-8) as toxicity marker, A549. In kind it is cell-based, human. Particulars: 24 h incubation, triplicate. The protocol: as §1

Turning to colistimethate sodium, the MIC in assay [1] (obtained for 16% of the 31 strains) worked out at 0.5 µg/mL; in assay [1] (obtained for 25% of the 31 strains), 1 µg/mL; in assay [1] (obtained for 48% of the 31 strains), 2 µg/mL; in assay [1] (obtained for the remaining strains), 4 µg/mL. For the same substance, in assay [2], the “Bacterial count (log CFU for every 2 lungs)” value is given as 4.9 ± 0.2 log CFU for every 2 lungs. Moreover, the “IC50 (median inhibition concentration, cell viability)” value amounted to 6.58 ± 0.72 µg/mL in assay [3] and 101.27 ± 14.44 µg/mL in assay [4].

As usually defined, the MIC is the lowest concentration that inhibits growth of the organism.
